Measurements published in US20250326749A1, “COMPOUNDS, COMPOSITIONS, AND METHODS OF USING THEREOF” (Sionna Therapeutics Inc., priority 2022, published 2025).

Target: T1, ΔF508-CFTR (Homo sapiens, UniProt P13569, DEL508-508)
T1 construct: expressed in transfected cells; host or cells: CFSMEo- (human CF submucosal gland epithelial cells, ΔF508/Q2X), transiently transfected by nucleofection
Test: ΔF508-CFTR-HRP trafficking assay (cell surface expression of ΔF508-CFTR)
Format: cell-based
Conditions: CFSMEo- cells transiently transfected with ΔF508-CFTR-HRP; test agent 3 μM, 48 h; HRP chemiluminescence
Source text: Test agents were screened for their effect on cell surface expression of ΔF508-CFTR using the ΔF508-CFTR-HRP trafficking assay. For this assay, a ΔF508-CFTR expression construct was designed with an in-frame insertion of a horseradish peroxidase (HRP) tag into the 4th extracellular loop of CFTR. The HRP tag would be presented extracellularly, in cells transiently transfected with the ΔF508-CFTR-HRP construct, following correction of the ΔF508-CFTR trafficking defect. The quantity of ΔF508-CFTR-HRP expressed on the plasma membrane could therefore be determined by measuring an HRP-dependent signal after the application of a cell-impermeable HRP substrate.
In brief, CF submucosal gland epithelial cells (CFSMEo-), derived from the airways of a CF patient (ΔF508/Q2X) and provided by Dr. Dieter Gruenert, University of California-San Francisco, were cultured at 37° C. with 5% CO2 in minimum essential medium (MEM) with Earle's salt and nonessential amino acids, supplemented with 10% (volume per volume [v/v]) fetal bovine serum, 2 mM L-glutamine and 1× (v/v) penicillin/streptomycin and grown in tissue culture-treated flasks coated with an extracellular matrix (ECM) cocktail consisting of 10 μg/mL human fibronectin, 30 μg/mL bovine collagen type I, and 100 μg/mL bovine serum albumin in LHC basal medium. These CFSMEo^− cells were transiently transfected with 4 μg of the ΔF508-CFTR-HRP expression construct using the Lonza 4D-Nucleofector Core unit (Lonza, Catalogue No. AAF-1002B) with the X unit (Lonza, Catalogue No. AAF-1002X) and SF Cell Line 4D-Nucleofector X Kit L (Lonza, Catalogue No. V4XC-2024) according to the manufacturer's instructions and plated at 1.2×10^4 cells/well onto collagen-coated, 96-well plates (Corning Inc.). Twenty-four h post-transfection, cells were treated with test agents, solubilized in DMSO at a concentration of 3 μM in replicates of 3, and allowed to incubate for 48 h. To detect HRP expression, cell culture media was removed, cells were washed with PBS and 100 μL of Luminata Forte HRP chemiluminescent substrate (EMD Millipore, Burlington, MA) was added to each well. Following a 5-minute incubation, chemiluminescence was measured in relative luminescent units (RLUs) using an EnVision plate reader (Perkin Elmer, Waltham, MA).
The ΔF508-CFTR-HRP trafficking data was normalized to the vehicle treated control (0.3% DMSO), followed by calculation of the mean, standard deviation, and standard error. If the test agent increased cell surface expression of ΔF508-CFTR-HRP relative to the vehicle-treated control, then that test agent was considered a ΔF508-CFTR corrector. Based on the description above, the biological activity of the examples in this disclosure is collected in Table 2.

T1 sequence (P13569 with tags, fused parts or gaps DEL508-508): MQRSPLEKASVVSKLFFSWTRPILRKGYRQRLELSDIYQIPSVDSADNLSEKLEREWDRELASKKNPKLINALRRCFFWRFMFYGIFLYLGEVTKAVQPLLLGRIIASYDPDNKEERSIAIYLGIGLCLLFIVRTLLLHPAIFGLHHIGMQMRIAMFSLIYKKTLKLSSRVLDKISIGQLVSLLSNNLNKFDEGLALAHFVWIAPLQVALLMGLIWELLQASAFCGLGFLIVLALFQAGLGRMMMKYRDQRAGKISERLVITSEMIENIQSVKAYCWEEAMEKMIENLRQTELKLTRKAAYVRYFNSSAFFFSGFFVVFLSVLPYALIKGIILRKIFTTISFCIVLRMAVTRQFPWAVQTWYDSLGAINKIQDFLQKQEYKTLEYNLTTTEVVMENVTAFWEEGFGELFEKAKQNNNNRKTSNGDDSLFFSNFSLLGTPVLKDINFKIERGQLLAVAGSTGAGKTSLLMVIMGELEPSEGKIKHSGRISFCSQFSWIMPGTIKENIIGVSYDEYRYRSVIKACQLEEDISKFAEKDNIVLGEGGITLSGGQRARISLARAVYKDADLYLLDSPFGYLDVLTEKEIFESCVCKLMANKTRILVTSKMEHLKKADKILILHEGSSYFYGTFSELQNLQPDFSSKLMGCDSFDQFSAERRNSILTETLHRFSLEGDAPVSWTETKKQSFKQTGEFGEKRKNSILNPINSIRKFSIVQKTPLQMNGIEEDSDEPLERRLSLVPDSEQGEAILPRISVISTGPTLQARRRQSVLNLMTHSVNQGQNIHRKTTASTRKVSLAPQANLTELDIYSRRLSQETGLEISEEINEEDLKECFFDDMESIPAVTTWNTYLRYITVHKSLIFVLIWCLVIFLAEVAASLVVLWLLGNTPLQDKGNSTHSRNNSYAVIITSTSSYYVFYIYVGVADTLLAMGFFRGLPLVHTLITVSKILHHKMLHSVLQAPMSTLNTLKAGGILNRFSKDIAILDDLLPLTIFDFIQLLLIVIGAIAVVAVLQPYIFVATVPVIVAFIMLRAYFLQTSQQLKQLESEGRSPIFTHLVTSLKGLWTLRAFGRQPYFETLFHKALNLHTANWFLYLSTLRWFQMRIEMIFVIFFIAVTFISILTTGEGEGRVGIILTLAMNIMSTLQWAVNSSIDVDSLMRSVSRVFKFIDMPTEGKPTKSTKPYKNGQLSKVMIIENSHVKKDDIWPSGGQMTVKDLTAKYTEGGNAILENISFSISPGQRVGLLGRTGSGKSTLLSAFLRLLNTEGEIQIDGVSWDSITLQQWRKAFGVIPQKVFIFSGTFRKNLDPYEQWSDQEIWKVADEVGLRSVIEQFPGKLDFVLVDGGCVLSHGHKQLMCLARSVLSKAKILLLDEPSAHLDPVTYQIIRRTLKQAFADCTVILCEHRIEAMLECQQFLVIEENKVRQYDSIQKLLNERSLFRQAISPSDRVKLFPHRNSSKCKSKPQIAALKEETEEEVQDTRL

SMILES | RLUs: ΔF508-CFTR-HRP trafficking data normalized to the vehicle treated control (0.3% DMSO)
C[C@H](Oc1cc(-n2nc(C(F)(F)F)c3c2N(C[C@H]2CC[C@H](C(=O)O)CC2)CCC3)ccn1)c1ccc2c(c1)OC(F)(F)O2 (single isomer, unassigned) [Example 7] | A (RLU 5.0 μM-10 μM)
C[C@H](Nc1nc(-n2nc(C#N)c3c2[C@@H](OC24CC(C(=O)O)(C2)C4)CCC3)ccc1F)c1ccc2c(c1)OC(F)(F)O2 (single isomer, unassigned) [108 (P1)] | C (RLU 0.0 μM-3.5 μM)
C[C@H](Nc1cc(-n2nc(C(F)(F)F)c3c2[C@@H](OC24CC(c5nc(=O)o[nH]5)(C2)C4)CCC3)ccc1F)c1ccc2c(c1)OC(F)(F)O2 (single isomer, unassigned) [102 (P1)] | C (RLU 0.0 μM-3.5 μM)
C[C@H](Oc1cc(-n2nc(C(F)(F)F)c3c2[C@@H](OC24CC(CC(=O)O)(C2)C4)CCC3)ccc1F)c1ccc2c(c1)OC(F)(F)O2 (single isomer, unassigned) [78 (P1)] | C (RLU 0.0 μM-3.5 μM)
C[C@H](Oc1cc(-n2nc(C(F)(F)F)c3c2[C@H](Oc2ccc(C(=O)O)cc2)CN(C)C3)ccn1)c1ccc2c(c1)OC(F)(F)O2 (single isomer, unassigned) [115 (P2)] | C (RLU 0.0 μM-3.5 μM)
C[C@H](Oc1nc(-n2nc(C(F)(F)F)c3c2[C@H](O[C@H]2C[C@H](C(=O)O)C2)CCC3)ccc1F)c1cc2c(cc1F)OC(F)(F)O2 (single isomer, unassigned) [84 (P2)] | C (RLU 0.0 μM-3.5 μM)
C[C@H](Oc1cc(-n2nc(C(F)(F)F)c3c2[C@H](OC24CC(c5nc(=O)o[nH]5)(C2)C4)CCC3)ccc1F)c1ccc2c(c1)OC(F)(F)O2 (single isomer, unassigned) [85 (P2)] | B (RLU 3.5 μM-5.0 μM)
C[C@H](Oc1cccc(-n2nc(C(F)(F)F)c3c2[C@H](OC24CC(C(=O)O)(C2)C4)CCC3)n1)c1ccc2c(c1)OC(F)(F)O2 (single isomer, unassigned) [77 (P2)] | B (RLU 3.5 μM-5.0 μM)
C[C@H](Oc1cc(-n2nc(C(F)(F)F)c3c2C(O[C@H]2CC[C@H](C(=O)O)CC2)CCC3)cc(F)n1)c1ccc2c(c1)OC(F)(F)O2 (stereo in doubt) [80 (P2), 4-[[(7R)-1-[2-[(1S)-1-(2,2-difluoro-1,3-benzodioxol-5-yl)ethoxy]-6-fluoro-4-pyridyl]-3-(trifluoromethyl)-4,5,6,7-tetrahydroindazol-7-yl]oxy]cyclohexanecarboxylic acid] | B (RLU 3.5 μM-5.0 μM)

Next, values leading:

RLUs: ΔF508-CFTR-HRP trafficking data normalized to the vehicle treated control (0.3% DMSO) | SMILES
A (RLU 5.0 μM-10 μM) | C[C@H](Oc1nc(-n2nc(C(F)(F)F)c3c2[C@@H](Oc2ccc(C(=O)O)cc2)CCC3)ccc1F)c1ccc2c(c1)OC(F)(F)O2 (single isomer, unassigned) [Example 36f]
B (RLU 3.5 μM-5.0 μM) | C[C@@H](Oc1cccc(-n2nc(C(F)(F)F)c3c2C(Oc2ccc(C(=O)O)cc2)CCC3)c1)c1cc2c(cn1)OC(F)(F)O2 (some centres unmarked) [Example 30]
B (RLU 3.5 μM-5.0 μM) | C[C@H](Oc1cncc(-n2nc(C(F)(F)F)c3c2[C@@H](OC24CCC(C(=O)O)(CC2)CC4)CCC3)c1)c1ccc2c(c1)OC(F)(F)O2 (single isomer, unassigned) [Example 57]
B (RLU 3.5 μM-5.0 μM) | C[C@H](Oc1cccc(-n2nc(C(F)(F)F)c3c2C(S(=O)(=O)N2CCC(C(=O)O)CC2)CCC3)c1)c1ccc2c(c1)OC(F)(F)O2 (some centres unmarked) [Example 123]
A (RLU 5.0 μM-10 μM) | C[C@H](Oc1cccc(-n2nc(C(F)(F)F)c3c2[C@H](Oc2ccc(C(=O)O)cc2)CCC3)c1)c1ccc2c(c1)OC(F)(F)O2 (single isomer, unassigned) [Example 26]
